Where “and” joins values, the source holds several entries; their conditions need not be identical. Identical values can stand only once.
Legend:
[1] = system: hydrogen peroxide (DHR) in NHEK cells; experiment: Protection against UV-induced H2O2 stress in NHEK (DHR probe, flow cytometry); format: cell-based, human; conditions: 180 mJ/cm^2 UVB (2839 mJ/cm^2 UVA), 100 μM
Experimental: (§1) Pre-incubated NHEK were incubated with the test compound for 24 h. Then the specific fluorescence probe for the measurement of hydrogen peroxide (DHR) or lipid peroxides (C11-fluor) was added and incubated for 45 min. Irradiation occurred with in H2O2 determination UVB at 180 mJ/cm^2 (+UVA at 2839 mJ/cm^2) or UVB at 240 mJ/cm^2 (+UVA at 3538 mJ/cm^2) in lipid peroxide, respectively, using a SOL500 Sun Simulator lamp. After irradiation the cells were post-incubated for 30 min before flow-cytometry analysis.

IL-8 = experiment: Anti-inflammatory potential: secreted IL-8 in stimulated NHEK (ELISA); format: cell-based, human; conditions: 100 μM; for Cytokine [pg/mL] IL-8: single values
Experimental: (§2) NHEK were pre-incubated for 24 h with the test compounds. The medium was replaced with the NHEK culture medium containing the inflammatory inducers (PMA or Poly I:C) and incubated for another 24 hours. Positive and negative controls ran in parallel. At the endpoint the culture supernatants were quantified of secreted IL-8, PGE2 and TNF-α, by means of ELISA.

PGE2 = experiment: Anti-inflammatory potential: secreted PGE2 in stimulated NHEK (ELISA); format: cell-based, human; conditions: PMA stimulation, 100 μM
Experimental: as §2

TNF-α = experiment: Anti-inflammatory potential: secreted TNF-α in stimulated NHEK (ELISA); format: cell-based, human; conditions: poly(I:C) stimulation, 100 μM
Experimental: as §2

NF-κB = NF-κB activity in NIH3T3-KBF-Luc cells stimulated with TNFα (luciferase); format: cell-based; conditions: +30 ng/ml TNFα
Experimental: NIH3T3-KBF-Luc cells were stably transfected with the KBF-Luc plasmid (Sancho (2003) Mol Pharmacol 63:429-438), which contains three copies of NF-κB binding site (from major histocompatibility complex promoter), fused to a minimal simian virus 40 promoter driving the luciferase gene. Cells (1×10^4 for NIH3T3-KBF-Luc) were seeded the day before the assay on 96-well plate. Then the cells were treated with the test substances for 15 min and then stimulated with 30 ng/ml of TNFα. After 6 h, the cells were washed twice with PBS and lysed in 50 μl lysis buffer containing 25 mM Tris-phosphate (pH 7.8), 8 mM MgCl2, 1 mM DTT, 1% Triton X-100, and 7% glycerol during 15 min at RT in a horizontal shaker. Luciferase activity was measured using a GloMax 96 microplate luminometer (Promega) following the instructions of the luciferase assay kit (Promega, Madison, Wis., USA). […] The experiments for each concentration of the test items were done in triplicate wells.

fibronectin = experiment: Stimulation of fibronectin synthesis in NHDF (ELISA); format: cell-based, human; conditions: 100 μM
Experimental: Tests were performed with normal human dermal fibroblast cultures at the 8th passage. Cells were grown in DMEM supplemented with glutamine at 2 mM, penicillin at 50 U/mL and streptomycin (50 μg/mL) and 10% of fetal calf serum (FCS) at 37° C. in a 5% CO2 atmosphere.
Fibroblasts were cultured for 24 hours before the cells were incubated with the test compounds for further 72 hours. After the incubation the culture supernatants were collected in order to measure the released quantities of procollagen I, VEGF, and fibronectin by means of ELISA. Reference test compounds were vitamin C (procollagen I), PMA (VEGF), and TGF-β (fibronectin).

[2] = system: lipid peroxides (C11-fluor) in NHEK cells; experiment: Protection against UV-induced lipid peroxide in NHEK (C11-fluor probe, flow cytometry); format: cell-based, human
Experimental: as §1

[3] = system: normal human epidermal keratinocytes (NHEK); experiment: Cytotoxicity on NHEK monolayer (MTT reduction assay and morphological observation); format: cell-based; conditions: MTT; for Viability (%): single values, listed as Nar-5-Rha
Experimental: To determine the cytotoxicity of flavonoid-5-O-α-L-rhamnosides tests were performed versus their aglycon derivatives in cell monolayer cultures. For this purpose concentrations ranging from 1 μM to 250 μM were chosen. The viability of normal human epidermal keratinocytes (NHEK) was twice evaluated by a MTT reduction assay and morphological observation with a microscope. NHEK were grown at 37° C. and 5% CO2 aeration in Keratinocyte-SFM medium supplemented with epidermal growth factor (EGF) at 0.25 ng/mL, pituitary extract (PE) at 25 μg/mL and gentamycin (25 μg/mL) for 24 h and were used at the 3rd passage. For cytotoxicity testing, pre-incubated NHEK were given fresh culture medium containing a specific concentration of test compound and incubated for 24 h. After a medium change at same test concentration cells were incubated a further 24 h until viability was determined. Test results are given in Table B2 and illustrated in FIG. 10.

[4] = 240 mJ/cm^2 UVB (3538 mJ/cm^2 UVA), 100 μM
[5] = 240 mJ/cm^2 UVB (3538 mJ/cm^2 UVA), 100 μM, single values

Compound: C[C@@H]1O[C@@H](Oc2cc(O)cc3c2C(=O)CC(c2ccc(O)cc2)O3)[C@H](O)[C@H](O)[C@H]1O (mixture of isomers) [NR1, Naringenin-5-O-α-L-rhamnoside]
- H2O2 % irradiated control [1]: 136%
- H2O2 (AU) Mean [1]: 2516.5 AU
- H2O2 Protection % [1]: −44%
- H2O2 (AU) (DHR GMFI) ([1]; single values): 2531 AU and 2502 AU
- Cytokine [pg/mL] IL-8 Mean (IL-8; PMA stimulation): 2564 pg/mL
- IL-8 % stim. control (IL-8; PMA stimulation): 88%
- Cytokine [pg/mL] IL-8 (IL-8; PMA stimulation): 2572 pg/mL and 2555 pg/mL
- Cytokine [pg/mL] IL-8 Mean (IL-8; poly(I:C) stimulation): 3154 pg/mL
- IL-8 % stim. control (IL-8; poly(I:C) stimulation): 86%
- Cytokine [pg/mL] IL-8 (IL-8; poly(I:C) stimulation): 3055 pg/mL and 3253 pg/mL
- Cytokine [pg/mL] PGE2 Mean (PGE2): 1271 pg/mL
- PGE2 % stim. control (PGE2): 81%
- Cytokine [pg/mL] PGE2 (PGE2; single values): 851 pg/mL and 1691 pg/mL
- Cytokine [pg/mL] TNFα Mean (TNF-α): 516 pg/mL
- TNFα % stim. control (TNF-α): 92%
- Cytokine [pg/mL] TNFα (TNF-α; single values): 516 pg/mL
- % Activation (NF-κB; TNFα = 100%) (NF-κB; 10 μM): 114.0%
- RLU 1 (NF-κB; 10 μM): 134540 RLU
- RLU 2 (NF-κB; 10 μM): 126580 RLU
- RLU 3 (NF-κB; 10 μM): 130240 RLU
- RLU MEAN (NF-κB; 10 μM): 130453 RLU
- RLU specific (NF-κB; 10 μM): 93190 RLU
- % Activation (NF-κB; TNFα = 100%) (NF-κB; 25 μM): 136.5%
- RLU 1 (NF-κB; 25 μM): 151080 RLU
- RLU 2 (NF-κB; 25 μM): 151840 RLU
- RLU 3 (NF-κB; 25 μM): 143870 RLU
- RLU MEAN (NF-κB; 25 μM): 148930 RLU
- RLU specific (NF-κB; 25 μM): 111667 RLU
- fibronectin synthesis increase (fibronectin): 20%
- Fibronectin % Control (fibronectin; 72 h incubation): 120%
- Fibronectin % Stimulation (fibronectin; 72 h incubation): 20%
- Fibronectin (ng/ml), single replicates (fibronectin; 72 h incubation): 6833 ng/mL and 7820 ng/mL
- Fibronectin Mean (fibronectin; 72 h incubation): 7326 ng/mL
- C11-fluor (AU) Mean (1/GMFI) [2, 4]: 4.3E−04 AU
- lipid peroxide % Irradiated control [2, 4]: 93%
- lipid peroxide Protection % [2, 4]: 9%
- C11-fluor (AU) 1/GMFI [2, 5]: 4.1E−04 AU and 4.4E−04 AU
- C11-fluor (AU) GMFI [2, 5]: 2414 AU and 2255 AU
- anti-oxidative function on lipid peroxides ([2]; UV irradiation): anti-oxidative function
- Viability (%) Mean ([3]; 1 μM): 101%
- Viability (%) ([3]; 1 μM): 91% and 111%
- Viability (%) Mean ([3]; 2.5 μM): 93%
- Viability (%) ([3]; 2.5 μM): 92% and 93%
- Viability (%) Mean ([3]; 5 μM): 86%
- Viability (%) ([3]; 5 μM): 85% and 88%
- Viability (%) Mean ([3]; 10 μM): 97%
- Viability (%) ([3]; 10 μM): 94% and 100%
- Viability (%) Mean ([3]; 25 μM): 95%
- Viability (%) ([3]; 25 μM): 92% and 98%
- Viability (%) Mean ([3]; 50 μM): 84%
- Viability (%) ([3]; 50 μM): 78% and 91%
- Viability (%) Mean ([3]; 100 μM): 86%
- Viability (%) ([3]; 100 μM): 82% and 90%
- Viability (%) Mean ([3]; 250 μM): 83%
- Viability (%) ([3]; 250 μM): 79% and 87%
